Entries after “also recorded” stand apart in the source; their conditions may differ.

One series deals with HSV-1. The settings on record: in vitro; Can. J. Chem. 74, 1609, 1996; cited from earlier work.
For another series, the system named is HSV-2. To be noted: in vitro; Can. J. Chem. 74, 1609, 1996; cited from earlier work.
For a further series, the system named is VZV. To be noted: in vitro; Can. J. Chem. 74, 1609, 1996; cited from earlier work.
In series [1] the test system is CMV. The settings on record: in vitro; Can. J. Chem. 74, 1609, 1996; cited from earlier work.
Series [2] deals with Varicella zoster virus (VZV). To be noted: said in WO 98/49177; cited from earlier work.
In series [3] the test system is CMV. The settings on record: said in WO 98/49177; cited from earlier work.
Another series has as its system CMV strain AD169. Briefly: CMV strain AD169 induced cytopathicity in HEL cells. It counts as cell-based, cytomegalo virus. To be noted: Human betaherpesvirus 5, AD169, 168 h, 50% reduction of virus induced cytopathicity, 7 days post infection. On the procedure: (§1) Each of the products of Examples 1 to 9 was tested in vitro in tissue cultures for toxicity and for potent antiviral actions with respect to cytomegalo virus (CMV). EC50/μM CMV-AD169 is the drug concentration in μM required to reduce by 50% CMV strain AD169 induced cytopathicity in human embryonic lung fibroblast (HEL) cells measured 7 days post infection compared to untreated control. Further details of the methodology employed can be found in McGuigan et al. J. Med. Chem., 1999, 42, 4479-4484.

The next series concerns CMV strain Davis. Briefly: CMV strain Davis induced cytopathicity in HEL cells. Format: cell-based, cytomegalo virus. The settings on record: Human betaherpesvirus 5, 168 h, 50% reduction of virus induced cytopathicity, 7 days post infection. On the procedure:
Each of the products of Examples 1 to 9 was tested in vitro in tissue cultures for toxicity and for potent antiviral actions with respect to cytomegalo virus (CMV). EC50/μM CMV Davis is the drug concentration in μM required to reduce by 50% CMV strain Davis induced cytopathicity in human embryonic lung fibroblast (HEL) cells measured 7 days post infection compared to untreated control. Further details of the methodology employed can be found in McGuigan et al. J. Med. Chem., 1999, 42, 4479-4484.

Series [4] concerns human embryonic lung cells. Briefly: minimum cytotoxic concentration to human embryonic lung cells. To be noted: for MCC/μM: minimum cytotoxic concentration, human embryonic lung cells; for toxicity (in words): summary of the table data. Format: cell-based. On the procedure:
Each of the products of Examples 1 to 9 was tested in vitro in tissue cultures for toxicity and for potent antiviral actions with respect to cytomegalo virus (CMV). MCC/μM is the minimum cytotoxic concentration to human embryonic lung cells. Further details of the methodology employed can be found in McGuigan et al. J. Med. Chem., 1999, 42, 4479-4484.

A short description of series [5]: concentration required to reduce the cell number by 50%. It counts as cell-based. The settings on record: human, human embryonic lung cells; concentration reducing the cell number by 50%. On the procedure: Each of the products of Examples 1 to 9 was tested in vitro in tissue cultures for toxicity and for potent antiviral actions with respect to cytomegalo virus (CMV). CC50/μM is the compound concentration required to reduce the cell number by 50%. Further details of the methodology employed can be found in McGuigan et al. J. Med. Chem., 1999, 42, 4479-4484.

A further series concerns cytomegalo virus (CMV). Briefly: anti-CMV activity in tissue culture, summary in words of the table. It counts as cell-based. To be noted: for anti-CMV activity (in words): summary of the table data, comparison with Ganciclovir. On the procedure: as §1, with “EC50/μM CMV Davis is” for “Further details of”, “drug concentration” for “methodology employed can be found”, “μM required to reduce by 50% CMV strain Davis induced cytopathicity in human embryonic lung fibroblast (HEL) cells measured 7 days post infection compared to untreated control.” for “McGuigan et al. J. Med. Chem., 1999, 42, 4479-4484.”

For the next series, the system named is VZV OKA strain. Briefly: VZV OKA strain induced cytopathicity in HEL cells. Format: cell-based, Varicella zoster virus. The settings on record: Human alphaherpesvirus 3, HEL, 168 h, read-out: EC50 VZV OKA strain. On the procedure: (§2) The compound of Example 3 wherein R is -nC10H21 was tested to assess its potency against VZV. Employing the equivalent EC50 assay as set out above, namely a measurement of the drug concentration required to reduce by 50% the VZV induced cytopathicity in human embryonic fibroblast (HEL) measured 7 days post infection, a concentration of 40 μM was found with respect to VZV OKA strain and a concentration of 20 μM was measured with respect to VZV YS strain.

Another series relates to VZV YS strain. Briefly: VZV YS strain induced cytopathicity in HEL cells. It counts as cell-based, Varicella zoster virus. To be noted: Human alphaherpesvirus 3, 168 h, 50% reduction of VZV induced cytopathicity, 7 days post infection. On the procedure:
as §2

Take `O=c1nc2occc2cn1C1CC(O)C(CO)O1` (centres unmarked): the “activity against HSV-1 (in words)” value in the series with HSV-1 is “inactive”. Also, in the series with HSV-2, the “activity against HSV-2 (in words)” value is “inactive”. Also, the “activity against VZV (in words)” value with VZV was “inactive”. For the same molecule, the “activity against CMV (in words)” value in the series with CMV [1] was “inactive”.

Take `CCCCCCCCCCc1cc2cn([C@H]3C[C@H](O)[C@@H](CO)O3)c(=O)nc2o1` [3-(2′-deoxy-β-D-ribofuranosyl)-6-decyl-2,3-dihydrofuro[2,3-d]pyrimidin-2-one]: the “anti-Varicella zoster virus (VZV) activity (in words)” value in [2] is given as “potent”.

As for `O=c1nc2oc(CCCCCCCCCCl)cc2cn1C1CC(O)C(CO)O1` (centres unmarked) [6-(9-chlorononyl)-3-(4-hydroxy-5-(hydroxymethyl)tetrahydro-2-furanyl)-2,3-dihydrofuro[2,3,-d] pyrimidin-2-one], the “anti-CMV activity (in words)” value with CMV [3] was “demonstrate anti-CMV activity”.

Consider `CCCCCCc1cc2cn(C3CCC(CO)O3)c(=O)nc2o1` [Example 1, 3-[2′,3′-dideoxy-ribo-β-D-furanosyl]-6-hexyl-2,3-dihydrofuro[2,3-d]pyrimidin-2-one], for which the EC50 was 32 µM with CMV strain AD169 and over 50 µM with CMV strain Davis. Further, in series [4], the MCC/μM amounted to 200 µM. The CC50 in series [5] amounted to 143 µM.

On to `CCCCCCCCc1cc2cn(C3CCC(CO)O3)c(=O)nc2o1` [Example 2, 3-[2′3′-dideoxy-ribo-β-D-furanosyl]-6-octyl-2,3-dihydrofuro[2,3-d]pyrimidin-2-one], for which it took 1.5 µM to reach a half-maximal effect with CMV strain AD169 (EC50). In the series with CMV strain Davis, it took 2.4 µM to reach a half-maximal effect (EC50). In addition, in series [4], the MCC/μM amounted to 20 µM; the “toxicity (in words)” value is “toxicity greater than any of the compounds of Examples 1, 3, 4, 5 and 6”. This molecule also gave a CC50 in series [5] of 112 µM. Also, in the series with cytomegalo virus (CMV), the “anti-CMV activity (in words)” value was “potent anti-CMV activity”.

With `CCCCCCCCCCc1cc2cn(C3CCC(CO)O3)c(=O)nc2o1` [Example 3, 3-[2′,3′-dideoxy-ribo-β-D-furanosyl]-6-decyl-2,3-dihydrofuro[2,3-d]pyrimidin-2-one], the EC50 was determined as 2.6 µM in the series on CMV strain AD169, 3.2 µM in the series on CMV strain Davis, 40 µM with VZV OKA strain and 20 µM in the series on VZV YS strain. Besides, the MCC/μM in [4] was over 200 µM. The “toxicity (in words)” value in series [4] is “acceptable level of toxicity”. The same molecule yielded a CC50 in series [5] of over 200 µM. In the series on cytomegalo virus (CMV) (CMV versus VZV EC50), the “activity against CMV compared with VZV (in words)” value is on record as “substantially more active against CMV, than against VZV”. Besides, the “anti-CMV activity (in words)” value in the series on cytomegalo virus (CMV) is given as “at least comparable to that of the known drug Ganciclovir”.

`CCCCCCCCCCCCc1cc2cn(C3CCC(CO)O3)c(=O)nc2o1` [Example 4, 3-[2′,3′-dideoxy-ribo-β-D-furanosyl]-6-dodecyl-2,3-dihydrofuro[2,3-d]pyrimidin-2-one]: the EC50 in the series on CMV strain AD169 is 3.7 µM. It took 5 µM to reach a half-maximal effect with CMV strain Davis (EC50). For the same molecule, in [4], the MCC/μM was determined as 200 µM and the “toxicity (in words)” value is “acceptable level of toxicity”. The molecule further had a CC50 in series [5] of over 200 µM. In addition, the “anti-CMV activity (in words)” value in the series on cytomegalo virus (CMV) was “at least comparable to that of the known drug Ganciclovir”.

For `CCCCCCCCCCCCCCc1cc2cn(C3CCC(CO)O3)c(=O)nc2o1` [Example 5, 3-[2′,3′-dideoxy-ribo-β-D-furanosyl]-6-tetradecyl-2,3-dihydrofuro[2,3-d]pyrimidin-2-one], the results for the EC50 in the series with CMV strain AD169 and in the series with CMV strain Davis were 25 µM and 40 µM, respectively. This molecule also showed an MCC/μM in series [4] of 200 µM. The CC50 in series [5] is over 200 µM.

The molecule `CCCCCCCCCc1cc2cn(C3CCC(CO)O3)c(=O)nc2o1` [Example 6, 3-[2′,3′-dideoxy-ribo-β-D-furanosyl]-6-nonyl-2,3-dihydrofuro[2,3-d]pyrimidin-2-one] showed a concentration for a half-maximal effect (EC50) in the series on CMV strain AD169 of 1.2 µM. Moreover, in the series on CMV strain Davis, a half-maximal response (EC50) required 1.3 µM. In [4], the MCC/μM is 200 µM and the “toxicity (in words)” value was “acceptable level of toxicity”. In series [5], this molecule had a CC50 of over 200 µM. Moreover, in the series on cytomegalo virus (CMV), the “anti-CMV activity (in words)” value is on record as “potent anti-CMV activity; also recorded: at least comparable to that of the known drug Ganciclovir”.

As to `CCCCCCCCCCCc1cc2cn(C3CCC(CO)O3)c(=O)nc2o1` [Example 7, 3-[2′,3′-dideoxy-ribo-β-D-furanosyl]-6-undecyl-2,3-dihydrofuro[2,3-d]pyrimidin-2-one], in the series on CMV strain AD169, the EC50 is 1.4 µM. The molecule also yielded an EC50 in the series on CMV strain Davis of 1.2 µM. Besides, in [4], the MCC/μM stood at 50 µM; the “toxicity (in words)” value is “toxicity greater than any of the compounds of Examples 1, 3, 4, 5 and 6”. In series [5], this molecule displayed a CC50 of over 200 µM. The “anti-CMV activity (in words)” value in the series with cytomegalo virus (CMV) is recorded as “potent anti-CMV activity”.

In the case of `CCCCOCCCCCCCCCc1cc2cn(C3CCC(CO)O3)c(=O)nc2o1` [Example 8, 3-(2′-3′-Dideoxy-β-D-ribofuranosyl)-6-[9-butyloxynonyl]-2,3-dihydrofuro[2,3-d]pyrimidin-2-one], the EC50 turned out to be 1.2 µM with CMV strain AD169 and 1 µM in the series on CMV strain Davis. In [4], this molecule had an MCC/μM of 5 µM. In addition, in series [4], the “toxicity (in words)” value is “toxicity greater than any of the compounds of Examples 1, 3, 4, 5 and 6”. The CC50 in [5] came out at 200 µM. In the series on cytomegalo virus (CMV), the “anti-CMV activity (in words)” value was “potent anti-CMV activity”.

`O=c1nc2oc(CCCCCCCCCOCCCCCl)cc2cn1C1CCC(CO)O1` [Example 9, 3-(2′-3′-Dideoxy-β-D-ribofuranosyl)-6-[9-(4-chlorobutoxy)nonyl]-2,3-dihydrofuro[2,3-d]pyrimidin-2-one]: the EC50 in the series on CMV strain AD169 came to 2.6 µM. The molecule further displayed an EC50 with CMV strain Davis of 1 µM. Further, in series [4], the MCC/μM came out at 20 µM; the “toxicity (in words)” value was “toxicity greater than any of the compounds of Examples 1, 3, 4, 5 and 6”. The molecule further returned a CC50 in series [5] of over 200 µM. The “anti-CMV activity (in words)” value with cytomegalo virus (CMV) was “potent anti-CMV activity”.

In the case of `Nc1nc(O)c2ncn(COC(CO)CO)c2n1` [Ganciclovir, reference compound], the EC50 in the series with CMV strain AD169 is 2.6 µM; in the series on CMV strain Davis it was 3.4 µM. Further, the MCC/μM in [4] is over 150 µM.

(Values after US7019135B2, “Anti-viral pyrimidine nucleoside analogues” (University College Cardiff Consultants Limited, priority 2000, dated 2006).)
